Reference: publication PMC6338342 (Journal of chromatography. B, Analytical technologies in …, 2016)
Where two headings read alike, the source gives them in different places.

What was measured:
[1] = rat, in vivo, po
[2] = male, Sprague-Dawley, rat, serum, po, 3 g/kg
[3] = male, Sprague-Dawley, rat, serum, po, 6 g/kg
[4] = male, Sprague-Dawley, rat, serum, po, 12 g/kg
[5] = rat serum, oral XLGB extract 3 g/kg, n = 6
[6] = rat serum, oral XLGB extract 6 g/kg, n = 6
[7] = rat serum, oral XLGB extract 12 g/kg, n = 6

With `CC1(C)CC[C@]2(C(=O)O[C@@H]3O[C@H](CO[C@@H]4O[C@H](CO)[C@@H](O)[C@H](O)[C@H]4O)[C@@H](O)[C@H](O)[C@H]3O)CC[C@]3(C)C(=CC[C@@H]4[C@@]5(C)CC[C@H](O[C@@H]6OC[C@H](O)[C@H](O)[C@H]6O)[C@@](C)(CO)[C@@H]5CC[C@]43C)[C@@H]2C1` [Akebia saponin D, akebia saponin D] the “AUC0–∞” value ([1]; 6 g/kg) was 756.83 ± 140.72 ng·h/mL, the AUC(0-t) ([1]; 6 g/kg) was 731.52 ± 131.54 ng·h/mL and the “MRT0–t” value ([1]; 6 g/kg) was 2.41 ± 0.25 h. The “MRT0–∞” value ([1]; 6 g/kg) was 2.63 ± 0.25 h, the “AUC0–∞” value ([1]; 12 g/kg) was 2658.47 ± 241.31 ng·h/mL and the AUC(0-t) ([1]; 12 g/kg) was 2642.49 ± 233.18 ng·h/mL. For the same molecule, the “MRT0–t” value ([1]; 12 g/kg) was 5.03 ± 0.32 h and the “MRT0–∞” value ([1]; 12 g/kg) was 5.91 ± 0.50 h.
In the case of `COc1ccc(-c2oc3c(CC=C(C)C)c(O[C@@H]4O[C@H](CO)[C@@H](O)[C@H](O)[C@H]4O)cc(O)c3c(=O)c2O[C@@H]2O[C@@H](C)[C@H](O)[C@@H](O)[C@H]2O[C@@H]2O[C@@H](C)[C@H](O)[C@@H](O)[C@H]2O)cc1` [Epimedin C, epimedin C], the “AUC0–∞” value ([1]; 3 g/kg) is reported as 69.33 ± 37.54 ng·h/mL, the AUC(0-t) ([1]; 3 g/kg) is reported as 21.70 ± 3.40 ng·h/mL and the “MRT0–t” value ([1]; 3 g/kg) is reported as 1.41 ± 1.01 h. For the same molecule, the “MRT0–∞” value ([1]; 3 g/kg) was 20.72 ± 19.70 h, the “AUC0–∞” value ([1]; 6 g/kg) was 1365.29 ± 80.31 ng·h/mL and the AUC(0-t) ([1]; 6 g/kg) was 1361.31 ± 79.46 ng·h/mL. For the same molecule, the “MRT0–t” value ([1]; 6 g/kg) was 1.45 ± 0.08 h, the “MRT0–∞” value ([1]; 6 g/kg) was 1.47 ± 0.08 h and the “AUC0–∞” value ([1]; 12 g/kg) was 4527.69 ± 474.54 ng·h/mL. For the same molecule, the AUC(0-t) ([1]; 12 g/kg) was 4397.49 ± 435.63 ng·h/mL, the “MRT0–t” value ([1]; 12 g/kg) was 3.07 ± 0.63 h and the “MRT0–∞” value ([1]; 12 g/kg) was 5.10 ± 4.50 h.
With `O=c1ccc2cc3ccoc3cc2o1` [Psoralen, psoralen] the AUC(0-inf) [2] was 2810 ± 701 ng·h/mL, the AUC(0-t) [2] was 2740 ± 682 ng·h/mL and the Cmax [2] was 290 ± 23.3 ng/mL. It also gave an MRT inf [2] of 8.4 ± 2.93 h, an MRT last [2] of 7.55 ± 2.44 h and a Tmax [2] of 4.5 ± 1.22 h. It also gave a half-life [2] of 6.39 ± 3.73 h, an AUC(0-inf) [3] of 18500 ± 529 ng·h/mL and an AUC(0-t) [3] of 18300 ± 511 ng·h/mL. It also gave a Cmax [3] of 1380 ± 150 ng/mL, an MRT inf [3] of 12.2 ± 0.9 h and an MRT last [3] of 11.8 ± 0.99 h. It also gave a Tmax [3] of 2.92 ± 1.28 h, a half-life [3] of 6.78 ± 1 h and an AUC(0-inf) [4] of 28400 ± 877 ng·h/mL. For the same molecule, the AUC(0-t) [4] was 28300 ± 899 ng·h/mL, the Cmax [4] was 1910 ± 118 ng/mL and the MRT inf [4] was 13.3 ± 1.18 h. For the same molecule, the MRT last [4] was 13.2 ± 1.14 h and the half-life [4] was 4.2 ± 0.42 h.
In the case of bavachinin, the “AUC0–∞” value [5] is reported as 53.60 ± 27.93 ng·h/mL, the AUC(0-t) [5] is reported as 31.63 ± 11.39 ng·h/mL and the Cmax [5] is reported as 10.25 ± 2.84 ng/mL. The “MRT0–t” value [5] was 6.26 ± 4.26 h, the “MRT0–∞” value [5] was 18.47 ± 15.68 h and the Tmax [5] was 0.50 ± 0 h. For the same molecule, the t1/2 [5] was 11.51 ± 9.48 h, the “AUC0–∞” value [6] was 406.85 ± 56.64 ng·h/mL and the AUC(0-t) [6] was 346.62 ± 36.95 ng·h/mL. For the same molecule, the Cmax [6] was 20.41 ± 2.63 ng/mL, the “MRT0–t” value [6] was 19.50 ± 3.03 h and the “MRT0–∞” value [6] was 28.15 ± 8.89 h. The Tmax [6] was 1.25 ± 1.04 h, the t1/2 [6] was 19.08 ± 8.31 h and the “AUC0–∞” value [7] was 379.76 ± 59.32 ng·h/mL. For the same molecule, the AUC(0-t) [7] was 343.30 ± 61.62 ng·h/mL, the Cmax [7] was 36.00 ± 4.29 ng/mL and the “MRT0–t” value [7] was 13.56 ± 2.69 h. The “MRT0–∞” value [7] was 18.40 ± 3.38 h, the Tmax [7] was 1.58 ± 0.38 h and the t1/2 [7] was 12.57 ± 3.06 h.
In the case of `CC(C)=CCc1cc(-c2coc3cc(O)ccc3c2=O)ccc1O` [Neobavaisoflavone, neobavaisoflavone], the AUC(0-inf) [2] is reported as 7.24 ± 6.25 ng·h/mL, the AUC(0-t) [2] is reported as 2.1 ± 0.78 ng·h/mL and the Cmax [2] is reported as 1.46 ± 0.38 ng/mL. The MRT last [2] was 1.57 ± 0.81 h, the Tmax [2] was 0.5 h and the half-life [2] was 6.28 ± 7.25 h. The AUC(0-inf) [3] was 60.6 ± 41 ng·h/mL, the AUC(0-t) [3] was 41.1 ± 19 ng·h/mL and the Cmax [3] was 10.7 ± 0.59 ng/mL. For the same molecule, the MRT inf [3] was 19.3 ± 20.7 h, the MRT last [3] was 9.13 ± 9.19 h and the Tmax [3] was 0.58 ± 0.2 h. It also gave a half-life [3] of 11.2 ± 9.11 h, an AUC(0-inf) [4] of 127 ± 32.3 ng·h/mL and an AUC(0-t) [4] of 110 ± 30.3 ng·h/mL. It also gave a Cmax [4] of 18.4 ± 5.4 ng/mL, an MRT inf [4] of 17.2 ± 9.5 h and an MRT last [4] of 8.79 ± 2.43 h. It also gave a half-life [4] of 16.2 ± 10.3 h.
